Reference: paper PMC11494886, “Discovery and design of molecular glue enhancers of CDK12–DDB1 interactions for targeted degradation of cyclin K” (RSC Chemical Biology, 2024)
Read-outs that look alike come from different tables or passages of the source.

Tests used:
[1] = target: T1, Cdk12/CycK and DDB1ΔB (Homo sapiens, UniProt Q16531+Q9NYV4, DEL396-705); test: GST pulldown assay, recruitment of DDB1ΔB to Cdk12/CycK; format: binding; settings: GST-Cdk12/GST-CycK bait, 5 μM compound, vs DMSO
T1 construct: the Cdk12 (714–1063)/CycK (1–267) complex and the DDB1ΔB protein; made in house; host or cells: Sf9 insect cells (MultiBacTurbo)
T1 sequence (Q9NYV4 714-1063, stated change not applied): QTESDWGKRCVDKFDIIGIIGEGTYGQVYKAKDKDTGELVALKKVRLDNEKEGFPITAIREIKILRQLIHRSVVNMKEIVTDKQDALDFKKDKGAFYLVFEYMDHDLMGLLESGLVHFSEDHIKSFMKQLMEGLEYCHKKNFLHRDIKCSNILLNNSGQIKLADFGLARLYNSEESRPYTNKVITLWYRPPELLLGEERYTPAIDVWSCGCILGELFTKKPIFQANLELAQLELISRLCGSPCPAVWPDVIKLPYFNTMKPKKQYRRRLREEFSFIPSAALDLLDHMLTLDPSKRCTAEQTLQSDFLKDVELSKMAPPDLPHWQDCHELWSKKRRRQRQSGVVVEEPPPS
T1 sequence (O75909 1-267 partner limits assumed): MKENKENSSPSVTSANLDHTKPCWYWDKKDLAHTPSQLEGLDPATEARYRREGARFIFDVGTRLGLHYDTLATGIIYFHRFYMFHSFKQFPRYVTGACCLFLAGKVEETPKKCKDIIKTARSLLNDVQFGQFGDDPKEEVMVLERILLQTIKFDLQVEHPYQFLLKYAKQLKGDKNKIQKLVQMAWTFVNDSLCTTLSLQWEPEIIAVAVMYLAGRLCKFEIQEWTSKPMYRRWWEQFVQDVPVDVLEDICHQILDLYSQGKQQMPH
T1 sequence (Q16531 with tags, fused parts or gaps DEL396-705): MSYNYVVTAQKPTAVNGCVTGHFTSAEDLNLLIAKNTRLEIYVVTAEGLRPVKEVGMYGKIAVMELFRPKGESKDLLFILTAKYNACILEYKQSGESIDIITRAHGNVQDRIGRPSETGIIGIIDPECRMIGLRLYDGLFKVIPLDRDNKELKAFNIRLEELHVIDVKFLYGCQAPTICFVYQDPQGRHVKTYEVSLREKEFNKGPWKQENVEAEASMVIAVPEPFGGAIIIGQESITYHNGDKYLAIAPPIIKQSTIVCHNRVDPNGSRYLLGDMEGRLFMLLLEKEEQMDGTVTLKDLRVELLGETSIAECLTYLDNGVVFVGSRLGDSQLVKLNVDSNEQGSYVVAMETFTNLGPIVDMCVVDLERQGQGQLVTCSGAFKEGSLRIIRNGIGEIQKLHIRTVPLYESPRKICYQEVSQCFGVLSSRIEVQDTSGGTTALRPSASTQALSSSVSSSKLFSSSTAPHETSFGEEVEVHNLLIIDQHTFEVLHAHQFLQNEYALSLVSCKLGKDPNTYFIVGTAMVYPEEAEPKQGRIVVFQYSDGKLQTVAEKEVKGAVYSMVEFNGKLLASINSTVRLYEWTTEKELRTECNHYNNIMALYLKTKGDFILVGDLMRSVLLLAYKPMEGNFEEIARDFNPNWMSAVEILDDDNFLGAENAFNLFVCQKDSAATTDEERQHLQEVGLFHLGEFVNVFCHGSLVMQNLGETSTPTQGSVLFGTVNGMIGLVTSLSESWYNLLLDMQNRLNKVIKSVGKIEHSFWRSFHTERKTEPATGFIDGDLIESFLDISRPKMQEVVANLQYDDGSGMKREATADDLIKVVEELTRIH
Protocol: The pulldown assay was utilized to identify drug-triggered protein–protein interactions involving the Cdk12 (714–1063)/CycK (1–267) complex and the DDB1ΔB protein. In this assay, purified GST-tagged Cdk12 construct complexed with GST-CycK was combined with equimolar amounts of His6-tagged DDB1ΔB (5 μM) in the presence of 5 μM of the respective small molecular compound in pulldown assay buffer (50 mM Hepes pH 7.4, 200 mM NaCl, 0.25 mM TCEP, 0.05% (v/v) Tween20), ensuring a 2% total DMSO concentration. Experimental controls included samples supplemented with 2% DMSO instead of compound as well as samples devoid of the GST-tagged Cdk12/CycK complex. Each sample was individually added to approximately 50 μL of pre-equilibrated glutathione agarose beads (Thermo Fisher Scientific). The bead suspensions were then subjected to a 2 h incubation period at room temperature with gentle agitation. After incubation, the beads were pelleted by centrifugation at 700 × g for 4 min, the supernatant was discarded, and the beads were washed three-times with 100 μL of pulldown assay buffer. Following the washing step, bound proteins were eluted from the beads with 50 μL of pulldown assay buffer supplemented with 10 mM GSH for 1 h at room temperature under rotation. Subsequently, the beads were again pelleted by centrifugation at 700 × g for 4 min and the resulting supernatants containing eluted protein fractions were mixed with 6 × SDS sample buffer at a 1 : 1 (v/v) ratio. The eluted protein samples were separated by SDS-PAGE and subjected to Coomassie brilliant blue staining for visualization and analysis.

[2] = target: T1, Cdk12/CycK and DDB1ΔB; test: Analytical size-exclusion chromatography of DDB1ΔB and Cdk12/CycK; format: binding; settings: 20 μM proteins, 60 μM compound, vs DMSO and THZ531
Protocol: Analytical size-exclusion chromatography was employed to investigate compound-induced protein–protein interactions between the heterodimeric Cdk12 (714–1063)/CycK (1–267) complex and the RING E3 ligase-associated adaptor protein DDB1ΔB. The analysis was conducted on an Agilent 1260 Infinity II HPLC system (Agilent Technologies), coupled with a Superdex 200 Increase 3.2/300 column (Cytiva), pre-equilibrated in Cdk12 SEC buffer (20 mM Hepes pH 7.8, 400 mM NaCl, 1 mM TCEP) supplemented with 1 g L^−1 carboxymethyl-dextran. Purified proteins, combined in equimolar ratios (20 μM Cdk12/CycK and DDB1ΔB, respectively) were supplemented with 3-fold molar excess of small molecular compounds. The resulting protein mixtures were diluted to a final volume of 25 μL using the kinases SEC-buffer ensuring a final DMSO concentration of 2%, followed by an incubation period of 10 min. Upon injection into the analytical system, the chromatography was conducted at a controlled flow rate of 0.05 mL min^−1, with protein absorbance monitored at 280 nm wavelength. Peak fractions were collected drop by drop and subsequently subjected to analysis via dynamic light scattering (DLS) to assess their size distribution, along with SDS-PAGE analysis to determine the composition of the protein complex.

[3] = target: T1, Cdk12/CycK and DDB1ΔB; test: Dynamic light scattering of SEC peak fractions; format: binding; settings: SEC peak middle fractions, vs negative controls
Protocol: To evaluate particle size distribution in liquid solution, dynamic light scattering was employed. Specifically, 10 μL fractions from the central region of peaks obtained in analytical size exclusion chromatography runs were analyzed. This analysis was performed using a DynaPro NanoStar 672 (Wyatt Technology) in a disposable DLS MicroCuvette (Wyatt Technology), while maintaining a constant temperature of 25 °C. Each measurement was conducted with an acquisition time of 3 s, and each data point depicted in the Results section represents the average of 20 individual DLS measurements. The hydrodynamic radius of the protein samples was determined using the processing and analysis software DYNAMICS.

[4] = target: T2, CDK12/cyclin K + DDB1 (Homo sapiens, UniProt Q16531+Q9NYV4, DEL396-705); test: Microscale thermophoresis, ternary complex formation; format: binding; settings: MST
T2 construct: The kinase domain of human CDK12 (Uniprot: Q9NYV4; a.a; 715–1050); GST (N, cleaved yes); made in house; host or cells: Spodoptera frugiperda SF9 insect cells (Bac-to-Bac); CDK12/cyclin K co-infected with S. cerevisiae CAK1
T2 sequence (Q16531 with tags, fused parts or gaps DEL396-705): as above
T2 sequence (Q9NYV4 715-1050, stated change not applied): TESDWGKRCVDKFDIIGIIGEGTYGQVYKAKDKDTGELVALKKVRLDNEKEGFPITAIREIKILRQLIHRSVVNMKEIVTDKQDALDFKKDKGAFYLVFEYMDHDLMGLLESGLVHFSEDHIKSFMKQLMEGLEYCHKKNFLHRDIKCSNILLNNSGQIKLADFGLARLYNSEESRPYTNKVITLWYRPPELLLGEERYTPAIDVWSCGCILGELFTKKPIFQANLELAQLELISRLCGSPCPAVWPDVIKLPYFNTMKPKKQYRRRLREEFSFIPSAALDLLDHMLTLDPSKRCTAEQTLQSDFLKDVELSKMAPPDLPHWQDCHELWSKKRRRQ
T2 sequence (O75909 11-267 partner limits assumed): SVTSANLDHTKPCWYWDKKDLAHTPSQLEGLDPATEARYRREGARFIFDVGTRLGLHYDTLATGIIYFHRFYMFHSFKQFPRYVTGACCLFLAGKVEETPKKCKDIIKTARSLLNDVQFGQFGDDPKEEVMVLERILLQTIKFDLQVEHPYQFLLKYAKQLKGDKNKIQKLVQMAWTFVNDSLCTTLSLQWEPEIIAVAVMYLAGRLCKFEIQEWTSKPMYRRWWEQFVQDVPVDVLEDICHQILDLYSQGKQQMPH
Protocol: Finally, the capacity of small molecules to induce a ternary complex between CDK12/cyclin K and DDB1 in vitro was assessed by microscale thermophoresis (MST). Labeled DDB1ΔBPB was combined with purified CDK12/cyclin K, and fluorescence intensity was monitored with increasing compound concentrations.
Cell pellets were harvested 48 hours post infection via centrifugation and lysed in buffer A (50 mM Tris–HCl (pH 8.0), 200 mM NaCl, 10 mM imidazole, 0.5 mM tris(2-carboxyethyl) phosphine (TCEP)) supplemented with EDTA-free Pierce™ protease inhibitor tablet (Thermo Fisher Scientific). […] The concentrated protein at 2 mg mL^−1 was flash-frozen in liquid nitrogen and stored at −80 °C.
Full-length S. cerevisiae CAK1 (Uniprot: P43568) with an N-terminal His6 tag was subcloned into pFastBac 1 vector. […] The eluted CDK12/cyclin K complex was concentrated to 2 mg mL^−1, flash-frozen in liquid nitrogen and stored at −80 °C.
A protocol to assess ternary binding of molecular glues with CDK12/cycK and DDB1 by MST was established using published procedures for PROTAC interaction with bromodomains and E3 ubiquitin ligases.[38] His8-DDB1-ΔBPB was labeled with the MO-L018 Monolith™ His-tag Labeling Kit RED-tris-NTA 2nd Generation (NanoTemper Technologies) following the instruction manual. 100 nM dye was mixed with 200 nM DDB1 in 50 mM HEPES pH 7.5, 150 mM NaCl, 5% glycerol, 0.05% Tween, and incubated at room temperature for 30 min. […] MST traces were recorded using standard parameters: 5 s MST power off, 30 s MST power on and 5 s MST power off. Measurements were taken at −1 to 0 s (cold region) and 9–10 s (hot region). Data were analyzed using a fitting function derived from the law of mass action:1 [drawing 6] where f(c) is the fluorescence signal (Fnorm) at a given ligand concentration (c), B is Fnorm of fully liganded DDB1 at high ligand concentrations, U is Fnorm of DDB1 alone at low ligand concentrations, Kd is the dissociation constant or binding affinity, cT is the final concentration of DDB1 in the assay (Fig. 3G). For normalization, the data were first transformed using eqn (2) where y is the fraction bound, followed by fitting to eqn (3) (Fig. 5B–E).2 [drawing 7] 3 [drawing 8]

[5] = target: CDK12 (Homo sapiens, UniProt Q9NYV4); test: CDK12 functional (kinase inhibition) assay; format: biochemical; settings: vs MR-1187
Chain of CDK12 (Q9NYV4 whole entry): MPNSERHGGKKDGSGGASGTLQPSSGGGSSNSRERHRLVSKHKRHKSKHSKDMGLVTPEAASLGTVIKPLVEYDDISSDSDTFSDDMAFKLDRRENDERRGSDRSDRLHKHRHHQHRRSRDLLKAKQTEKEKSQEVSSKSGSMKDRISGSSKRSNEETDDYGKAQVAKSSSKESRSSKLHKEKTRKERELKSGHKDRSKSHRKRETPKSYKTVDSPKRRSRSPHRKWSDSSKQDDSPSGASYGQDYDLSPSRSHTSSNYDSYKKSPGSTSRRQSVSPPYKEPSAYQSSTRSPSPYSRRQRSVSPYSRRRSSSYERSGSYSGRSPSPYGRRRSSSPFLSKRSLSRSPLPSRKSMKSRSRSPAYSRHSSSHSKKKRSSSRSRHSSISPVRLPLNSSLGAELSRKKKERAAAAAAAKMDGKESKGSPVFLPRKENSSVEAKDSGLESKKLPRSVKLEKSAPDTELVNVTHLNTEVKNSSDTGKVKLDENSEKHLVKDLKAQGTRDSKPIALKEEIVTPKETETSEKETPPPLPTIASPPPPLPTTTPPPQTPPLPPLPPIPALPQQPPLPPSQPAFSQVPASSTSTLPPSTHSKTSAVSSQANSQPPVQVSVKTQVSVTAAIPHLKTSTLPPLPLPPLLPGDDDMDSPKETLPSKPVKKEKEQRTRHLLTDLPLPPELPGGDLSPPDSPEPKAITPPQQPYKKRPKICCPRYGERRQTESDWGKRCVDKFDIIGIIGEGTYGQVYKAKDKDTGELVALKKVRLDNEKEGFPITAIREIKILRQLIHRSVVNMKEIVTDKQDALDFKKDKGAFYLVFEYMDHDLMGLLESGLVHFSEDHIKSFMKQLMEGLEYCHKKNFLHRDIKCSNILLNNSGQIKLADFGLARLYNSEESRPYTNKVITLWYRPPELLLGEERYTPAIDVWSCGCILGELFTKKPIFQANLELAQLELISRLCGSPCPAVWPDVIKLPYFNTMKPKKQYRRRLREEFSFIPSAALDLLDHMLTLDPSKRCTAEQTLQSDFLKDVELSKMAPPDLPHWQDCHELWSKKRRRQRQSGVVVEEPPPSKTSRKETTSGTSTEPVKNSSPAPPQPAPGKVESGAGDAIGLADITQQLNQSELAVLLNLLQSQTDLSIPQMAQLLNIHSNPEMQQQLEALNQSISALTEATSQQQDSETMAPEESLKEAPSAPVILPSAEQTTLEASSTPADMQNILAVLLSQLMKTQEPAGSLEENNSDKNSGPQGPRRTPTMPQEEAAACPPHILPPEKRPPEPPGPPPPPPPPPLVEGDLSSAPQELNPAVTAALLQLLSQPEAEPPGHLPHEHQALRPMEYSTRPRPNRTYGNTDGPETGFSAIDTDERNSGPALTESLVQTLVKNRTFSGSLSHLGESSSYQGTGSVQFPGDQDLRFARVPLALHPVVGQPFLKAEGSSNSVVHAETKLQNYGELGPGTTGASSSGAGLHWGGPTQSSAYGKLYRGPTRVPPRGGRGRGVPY
Chain of CDK12 (O75909 whole entry partner): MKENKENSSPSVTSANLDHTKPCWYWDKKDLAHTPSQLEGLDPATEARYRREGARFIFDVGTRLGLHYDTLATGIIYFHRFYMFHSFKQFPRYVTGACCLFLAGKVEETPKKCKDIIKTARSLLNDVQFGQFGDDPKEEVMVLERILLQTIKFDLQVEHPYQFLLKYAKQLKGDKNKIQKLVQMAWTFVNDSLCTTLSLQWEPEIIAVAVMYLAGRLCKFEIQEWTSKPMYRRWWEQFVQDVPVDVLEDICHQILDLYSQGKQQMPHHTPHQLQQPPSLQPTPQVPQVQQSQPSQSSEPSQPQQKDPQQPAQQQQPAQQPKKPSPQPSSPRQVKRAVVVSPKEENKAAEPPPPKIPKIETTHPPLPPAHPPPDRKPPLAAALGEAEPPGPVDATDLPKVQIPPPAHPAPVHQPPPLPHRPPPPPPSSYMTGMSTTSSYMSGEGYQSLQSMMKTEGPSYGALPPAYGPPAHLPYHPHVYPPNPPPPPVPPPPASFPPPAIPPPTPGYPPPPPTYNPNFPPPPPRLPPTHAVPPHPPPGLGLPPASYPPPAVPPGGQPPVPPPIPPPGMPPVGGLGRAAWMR

[6] = system: HiBiT-tagged cyclin K; test: HiBiT cyclin K degradation assay (DC50, Dmax); format: cell-based; settings: HiBiT-CCNK KI A549 cells, 2 hours, vs DMSO
Protocol: Next, we utilized HiBiT technology (Promega) for quantitative analysis of cyclin K degrader activity. […] Importantly, knockout of CDK12 using CRISPR/Cas9 protected cyclin K from SR-4835-induced degradation (Fig. 1D). We verified the depletion of CDK12 in HEK-293T cells (Fig. S3, ESI ^†).
The HiBiT-CCNK KI A549 cells (Promega) were seeded in 384 well plate and treated with the test compounds for 2 hours in a dose dependent manner. Nano-Glo® HiBiT Lytic Detection System (Promega) composed of the Nano-Glo® HiBiT Lytic Substrate, Nano-Glo® HiBiT Lytic Buffer and LgBiT Protein was used as per the manufacturer's instructions. Briefly, a 2× Nano-Glo® HiBiT Lytic Detection Reagent mixture was prepared by adding 20 μL of Nano-Glo® HiBiT Lytic Substrate and 10 μL of LgBiT protein per every 1 mL of Nano-Glo® HiBiT Lytic Buffer. After incubating the cells with the 2× Nano-Glo® HiBiT Lytic Detection Reagent mixture, luminescence was measured. HiBiT tagged cyclin K present at any given concentration was measured by normalizing the luminescence signal at that concentration to the luminescence signal from the DMSO (control) cells. The concentration necessary to achieve a 50% reduction in cyclin K levels (DC50) and the maximum achievable reduction in cyclin K levels (Dmax) was computed from this assay.

[7] = system: cyclin K; test: Immunofluorescence of nuclear cyclin K in MDA-MB-231 cells; format: cell-based, human; settings: MDA-MB-231 cells, 0.5 µM, 2 h
Protocol: Cells were fixed with 4% PFA in PBS at room temperature, permeabilized with 0.1% Triton X-100 in PBS, and blocked with 3% BSA in PBS at room temperature. Cells were incubated with primary antibodies overnight at 4 °C, followed by incubation with Alexa-Fluor conjugated secondary antibodies for 1 hour at room temperature. Cell nuclei were stained using DAPI. Images were acquired on a confocal microscope (Leica). ImageJ and QuPath were used for image analysis.
Figure S8. Immunofluorescence staining for cyclin K degradation. MDA-MB-231 cells were
treated for 2 h with either DMSO or the indicated compounds (0.5 µM) . Cells were fixed and
Nuclei were stained with DAPI (blue). […]

Compound | recruitment of DDB1ΔB in pulldown [1] | retention time in analytical SEC (ternary complex formation) [2] | hydrodynamic radius (DLS) [3] | Kd ([4]; labeled DDB1 + CDK12/cyclin K, run #1, read-out: Kd ternary complex formation, replicate #1) | Kd ([4]; labeled DDB1 + CDK12/cyclin K, run #2, read-out: Kd ternary complex formation, replicate #2) | Kd ([4]; labeled DDB1 + CDK12/cyclin K, run #3, read-out: Kd ternary complex formation, replicate #3) | Kd ([4]; labeled DDB1ΔBPB 10 nM + CDK12/cyclin K 1000 nM, mean of replicates, read-out: Kd ternary complex formation (average)) | fold better CDK12 kinase inhibition compared to MR-1187 [5] | Dmax (maximum reduction in cyclin K levels) [6] | cyclin K nuclear intensity compared to control [7]
CC[C@H](CO)Nc1nc(NCc2ccc(-c3ccccn3)cc2)c2ncn(C(C)C)c2n1 [CR8, reference compound] | enrichment of DDB1ΔB fractions | reduced retention times | significantly increased | – | – | – | – | – | – | –
CCc1cnn2c(NCc3nc4cc(Cl)c(Cl)cc4[nH]3)cc(N3CCCC[C@H]3CCO)nc12 [MR-1226, (S)-2-(1-(7-(((5,6-Dichloro-1H-benzo[d]imidazol-2-yl)methyl)amino)-3-ethylpyrazolo[1,5-a]pyrimidin-5-yl)piperidin-2-yl)ethan-1-ol] | – | – | – | 8.7 ± 2.7 nM | 10.3 ± 4 nM | 9.6 ± 3.3 nM | 9.5 nM | 35 fold | > 95% | reduced
